From US20100297109A1, “METHODS FOR INHIBITING FASCIN” (Cornell University, priority 2007, published 2010)
Read-outs that look alike come from different tables or passages of the source.

How the values were obtained:
4T1 cells [1] = settings: read-out: IC50, 4T1 cell migration, cited from earlier work
[2] = tested on: several types of tumor cells; settings: Nakae et al. 2000, cited from earlier work
4T1 tumor cells = assay: 4T1 mouse mammary tumor model, spontaneous lung metastasis; type: in vivo
[3] = Gaul et al. 2004; cited from earlier work
[4] = tested on: mouse breast tumor 4T1 cells; assay: Wound-healing assay, serum-induced migration of 4T1 cells; type: cell-based; settings: 2 μM
Procedure: (§1) Cells. Mouse 4T1 mammary tumor cells and human MDA-MB-231 breast tumor cells were obtained from ATCC and have been described previously (Shan et al. 2005, Yang et al. 2005). 4T1 cells were cultured in RPMI 1640 medium supplemented with 10% FBS. MDA-MB-231 cells were cultured in DMEM supplemented with 10% FBS. Wound-healing assay. The wound-healing assay involves observing whether confluent cells can migrate across a scrape or wound in the cell layer. Cell migration assays were performed as described previously (Yang et al. 2005, Shan et al 2006). Tumor cells were plated in a 24-well plate coated with gelatin in standard media. After the cells grew to confluence, wounds were made in the confluent layer of cell using a sterile instrument such as a sterile pipette tip. The cells were washed with Phosphate Buffered Saline (PBS) or other sterile solutions and then the migration was induced by adding medium supplemented with 10% FBS. When the wound for the positive control closed, cells were fixed with 3.7% formaldehyde and stained with crystal violet staining solution. […] Photographs several random regions of the filter facing the second chamber are taken and the number of cells counted to calculate the average number of cells that had transmigrated.

4T1 cells [5] = assay: Boyden chamber cell migration assay, serum-induced migration of 4T1 cells; type: cell-based, mouse; settings: FIGS. 1C and 1D
Procedure: as §1, with “media.” for “media. After the cells grew to confluence, wounds were made in the confluent layer of cell using a sterile instrument such as a sterile pipette tip. The cells were washed with Phosphate Buffered Saline (PBS) or other sterile solutions and then the migration was induced by adding medium supplemented with 10% FBS. When the wound for the positive control closed, cells were fixed with 3.7% formaldehyde and stained with crystal violet staining solution.”
(§2) Boyden Chamber Cell Migration Assay. […] Three randomly selected fields (10× objectives) on the lower side of the insert were photographed, and the migrated cells were counted. The migration was expressed as either the average number of migrated cells in a field or as percentage of migrated cells in positive control. Percentage was calculated with the formula P=100×(M−Mnc)/Mpc, where P is the percentage of migrated cells, M is the number of migrated cells, Mnc is the number of migrated cells in negative controls, and Mpc is the number of migrated cells in positive controls.

[6] = tested on: human breast tumor MDA-MB-231 cells; assay: Wound-healing assay, serum-induced migration of MDA-MB-231 cells; type: cell-based; settings: 20 μM
Procedure: as §1

[7] = tested on: mouse embryonic fibroblast (MEF) cells; assay: Wound-healing assay, serum-induced migration of MEF cells; type: cell-based; settings: 200 μM
[8] = tested on: human breast tumor MDA-MB 231 cells; assay: Cell migration assay, MDA-MB-231 cells; type: cell-based
Procedure: as §1, with “media.” for “media. After the cells grew to confluence, wounds were made in the confluent layer of cell using a sterile instrument such as a sterile pipette tip. The cells were washed with Phosphate Buffered Saline (PBS) or other sterile solutions and then the migration was induced by adding medium supplemented with 10% FBS. When the wound for the positive control closed, cells were fixed with 3.7% formaldehyde and stained with crystal violet staining solution.”
as §2

[9] = tested on: human prostate tumor PC-3 cells; assay: Cell migration assay, PC-3 cells; type: cell-based
[10] = tested on: human colon tumor Lovo cells; assay: Cell migration assay, Lovo cells; type: cell-based
4T1 cells [11] = settings: serum, Shan et al. 2005; cited from earlier work
fascin = fascin (Homo sapiens, UniProt Q16658); assay: GST-fascin and biotin-macroketone interaction; type: binding; set-up: made in house; host or cells: Escherichia coli BL21; settings: excess unlabeled compound
Procedure: Whole cell lysates from 4T1 mouse breast tumor cells were made. After preclearing the cell lysate with immobilized neutravidin biotin binding protein (Pierce, IL, USA) to remove biotin and avidin-binding proteins, the cell lysates were loaded to a column packed with the biotin-labeled macroketone (conjugated to neutravidin beads). A control column packed with free biotin and neutravidin beads was run side-by-side. After washing the column with 10 bed volumes of lysis buffer with 300 mM NaCl, the bound proteins were eluted with 0.1 M Glycine-HCl at pH 2.8 according to the manufacturer's instruction. […] Protein Expression and Purification. Recombinant GST-fascin fusion protein was produced in BL21 Escherichia coli. A 1-liter culture was grown to an A600 reading of 1.0 and then induced by addition of 0.3 mM isopropyl 1-thio-D-galactopyranoside (IPTG) for 12 hours at 25° C. Cells were flash frozen and then lysed by sonication in Tris-buffered saline. The supernatant was then incubated with glutathione-Sepharose for 2 h at 4° C. After extensive washing, GST-fascin was eluted and concentrated with a Centricon Plus-20 (Millipore). To remove the GST tag from the fusion protein, beads were incubated with thrombin overnight at 4° C. The supernatant was collected and concentrated. GST-fascin and Biotin-macroketone Interaction. […] Proteins associated with biotin-macroketone were precipitated with Untralink-immobilized NeutrAvidin agarose (Pierce). After extensive washing, bound proteins were eluted with SDS sample buffer and resolved by 10% SDS-PAGE. F-Actin Bundling Assay. Actin bundling activity was measured by low speed centrifugation assay and fluorescence microscopy. In low-speed centrifugation assay, monomeric rabbit G-actin was induced to polymerize at room temperature in F-actin buffer (20 mM Tris-HCl at pH 8, 1 mM ATP, 1 mM DTT, 2 mM MgCl2 and 100 mM KCl). Recombinant fascin proteins or control buffer were subsequently incubated with F-actin for 60 min at room temperature and centrifuged for 30 min at 10,000 g in an Eppendorf 5415D table-top centrifuge.

[12] = Njardarson et al. 2004, Gaul et al. 2004

For `CO[C@H]1/C=C/CC/C=C/C(=O)OC([C@H](C)C(=O)CCCC2CC(=O)NC(=O)C2)/C(C)=C\[C@@H](C)[C@@H]1O` (some centres unmarked) [migrastatin, Migrastatin], the IC50 (4T1 cells [1]; [12]) is listed as 29 µM, the “biosyntheses of DNA, RNA, and protein” value [2] is listed as “has no effect” and the “migration of tumor cells in vitro” value ([2]; high micromolar concentrations) is listed as “inhibits the migration”.

In the case of `COC1C=CCCCCC(=O)OCC(C)=CC(C)C1O` (centres unmarked) [macrolactone], the “effect on 4T1 tumor metastasis” value (4T1 tumor cells; 20 mg/kg) is listed as “statistically significant, it was much less than those of macroketone and macrolactam”, the IC50 (4T1 cells [1]; macrolactone, Gaul et al. 2004) is listed as 0.024 µM and the “half-life in mouse plasma” value [3] is listed as less than 5 min.

For `COC1C=CCCCCC(=O)NCC(C)=CC(C)C1O` (centres unmarked) [macrolactam, Migrastatin lactam], the “inhibition of serum-induced migration (wound-healing)” value [4] was “inhibited the migration”, the IC50 (4T1 cells [5]) was 0.255 µM and the “inhibition of serum-induced migration (wound-healing)” value [6] was “inhibited the migration”. The “effect on serum-induced migration (wound-healing)” value [7] was “had no effect”, the inhibition of migration [8] was “inhibited the migration” and the inhibition of migration [9] was “inhibited the migration”. For the same compound, the inhibition of migration [10] was “inhibited the migration”, the “formation of lamellipodia at the leading edge” value (4T1 cells [11]) was “inhibited the formation of lamellipodia” and the “competition of binding of biotin-conjugated macroketone to fascin” value (fascin) was “competed the binding”.

For `C=CC(OC)C(O[Si](C)(C)C(C)(C)C)C(C)C=C(C)CO` (centres unmarked) [migrastatin semi-core, reference compound], the “effect on 4T1 tumor metastasis” value (4T1 tumor cells; 10 and 20 mg/kg) is given as “did not significantly reduce” and the IC50 (4T1 cells [1]; [12]) is given as 40 µM.
